“And” between values parts separate entries of the source, which are not always exact repeats. Equal values may be shown once.
Key:
human ABCB4 [1] = molecular target: T1, human ABCB4 (Homo sapiens, UniProt P21439); test: ATP hydrolysis (malachite green) of detergent-solubilized, purified ABCB4: modulation of basal ATPase activity; type: biochemical; conditions: for Concentration at which maximal stimulation (plateau) of ATPase activity is reached / EC50 / Emax: 0-1,000 μM; for EC50: stimulation of basal ATPase activity, allosteric sigmoidal fit, read-out: EC50; for Emax: vmax of allosteric sigmoidal fit (Equation 1), basal ABCB4 ATPase activity set to 0%, read-out: Max. Stimulation (%)
T1 construct: made in house; host or cells: Pichia pastoris (chromosomally integrated)
Experimental: (§1) The sodium salts of conjugated and unconjugated bile acids were dissolved in double-distilled water (ddH2O) or 100% DMSO at a concentration of 100 mM. While glyco-/tauro-/cholic acid (G/T/CA), glyco-/tauro-/chenodeoxycholic acid (G/T/CDCA) were dissolved in ddH2O water, glyco-/tauro-/deoxycholic acid (G/T/DCA), glyco/-tauro-/ursodeoxycholic acid (G/T/UDCA) as wells as Nor-UDCA and taurolithocholic acid (TLCA) were dissolved in DMSO. […] Modulation of the ATP hydrolysis by bile acid was determined in a concentration-dependent manner from 0 to 1,000 μM bile acids.
(§2) Analysis of the ATP activity of ABCB4 was performed by determining the amount of released, free inorganic orthophosphate by the malachite green assay ([53], [54], [60]) with minor modifications. The assay was performed in a total volume of 100 μl consisting of reaction buffer (50 mM Tris HCl, pH 7.4 at 37°C, 100 mM NaCl) supplemented with the 2.5 × cmc of FC-16 and 10 mM MgCl2. For determining the effect of DOPC, different bile acids or combinations thereof, 1–5 μL of the corresponding stock solutions (see lipid and bile acid preparation) were added. Five micrograms of ABCB4 or the BODIPY®-labeled sample was used in every reaction sample. Reaction was started by addition of ATP (5 mM f.c.) and performed for 40 min at 37°C. After 0 and 40 min, the reaction was stopped by transferring 25 μl of the reaction mixture into a 96-well plate containing 175 μl of 20 mM ice-cold sulfuric acid. Additionally, a phosphate standard with concentrations raging from 0 to 500 μM was used. Subsequently, inorganic phosphate was stained by adding 50 μl of dye (0.096% (w/v) malachite green, 1.48% (w/v) ammonium molybdate, 0.173% (w/v) Tween-20, and […] sulfuric acid). After incubation for 15 min, the absorption at 595 nm was measured (iMark™ Microplate Reader, BioRad), and the concentrations of phosphate release were calculated based on the slope of the line calculated based on the phosphate standards.
(§3) Basal ATPase activity of ABCB4 was set to 0% and the effect of supplements was calculated as % stimulation or % inhibition of the basal activity, respectively. For determination of kinetic parameters, bile acid concentration was varied and analyzed according to an allosteric sigmoidal fit (Equation 1):(1) v=vmax∗[S]^h/EC50h+[S]^h
Here, v describes the stimulation (%), vmax is the maximal stimulation (%), EC50 represents the half maximal effective concentration, S is the substrate concentration, and h is the Hill coefficient
In case of inhibition, the reduction (%) was plotted against the bile acid concentration and data were analyzed using Equation 2:(2) y=ymin+(ymax−ymin)/1+10^((logIC50−x)∗slope)
Here, ymax is the smallest, and ymin is the highest amount of inhibition, respectively, and x represents the concentration of the inhibitor. The IC50 value is defined as the concentration necessary to obtain 50% inhibition.
In case of both substrate stimulations, followed by substrate inhibition after maximal stimulation was reached, the modulation (%) was plotted against the substrate concertation and data was analyzed using by two fits: First part (stimulation) was as usually fitted using Equation 1. The second part (substrate inhibition) was analyzed by Equation 3 starting at the last point of the plateau:(3) y=ymin+[…]/(1+x/IC50)
Here, ymax is the highest value of the plateau after stimulation is reached, while ymin is the smallest value of y after maximal stimulation was reached.

human ABCB4 [2] = molecular target: T1, human ABCB4; test: ATP hydrolysis (malachite green) of purified ABCB4 in the presence of 300 μM DOPC (with or without cholesterol); type: biochemical; conditions: for activity at 1000 µM: 1,000 μM bile acid/detergent/BAM + 300 μM DOPC, DOPC alone set to 100%, read-out: Relative ATPase activity in the presence of 300 μM DOPC
Experimental: A sample of purified ABCB4 was incubated with 10-fold molar excess of BODIPY® FL maleimide (BODIPY® FL N-(2-aminoethyl)maleimide, Molecular Probes) at 22°C for 20 min. The reaction was quenched after 20 min by addition of a 20-fold molar excess of dithiothreitol (DTT) at 22°C for 10 min. Qualitative labeling efficiency was analyzed by visualizing a sample after SDS-PAGE by UV excitation.
DOPC was dissolved in chloroform, the solvent was evaporated, and the dried lipid sample was redissolved in ATP hydrolysis reaction buffer (50 mM Tris HCl, pH 7.4 at 37°C, 100 mM NaCl) at a concentration of 25.4 mM following the protocol of Geertsma et al. ([59]). Prior to the addition of the DOPC sample to the ATP hydrolysis assay, it was diluted to 5 mM, sonicated until a clear solution was obtained, and subsequently used at a final concentration of 300 μM. Since chloroform is not suitable for the later ATPase assay and cholesterol at higher concentration is insoluble in water and nearly all solvents, a molar mixture of cholesterol and DOPC was used. This mixture was obtained by adding the required molar ratio of cholesterol to always the same amount of dried DOPC. Afterward, the mixture was treated identical to DOPC only as described above resulting in a final concentration (f.c.) of 300 μM DOPC with 0–1,000 μM cholesterol in the ATPase assay.
as §1, §2, §3

[3] = Critical micelle concentration by Hoechst 33342 fluorescence in ATPase reaction buffer; type: physicochemical; conditions: 50 mM Tris-HCl pH 7.5, 100 mM NaCl, 37°C; no FC-16, MgCl2 or ATP
Experimental: CMC values were determined as described ([61]). […] 96-well plates suitable for fluorescence spectroscopy (Greiner Bio-One, FIA plate, black, flat bottom, medium binding) were used. […] CMCs of the bile acids were determined in ATPase reaction buffer (50 mM Tris-HCl, pH 7.5 (at 37°C), 100 mM NaCl) containing no FC-16, MgCl2, or ATP at 37°C using a Tecan M200 plate reader (Atlantic lab equipment). Bile acids were dissolved either in ddH2O or in 100% DMSO (as stated in “Lipid, cholesterol and bile acid preparation”) at a concentration of 100 mM. […] In case of hydrophobic bile acids, which were dissolved in DMSO, DMSO concentration was adapted to 1% in all wells. […] After background correction, fluorescence data were analyzed using Prism (version 8, GraphPad) with Equation 4:(4) F=Fmax∗(c[BA]−cmc)/(K0.5−cmc)+(c[BA]−cmc)
The measured fluorescence at each bile acid concentration (c[BA]) is represented by F, while Fmax is the maximal fluorescence, K0.5 is the midpoint of the function, and cmc is the critical micelle concentration of the bile acid.

[4] = Solubility / precipitation of bile acids under assay conditions; type: physicochemical; conditions: assay setup, DMSO stock
Experimental: as §1, with “DMSO. Glyco- and unconjugated lithocholic acid could not be dissolved in DMSO in the appropriate concentrations and therefore excluded.” for “DMSO.”

[5] = Hill coefficient of allosteric sigmoidal fit of ATPase stimulation

T1 sequence (P21439 1-1279 isoform P21439-2): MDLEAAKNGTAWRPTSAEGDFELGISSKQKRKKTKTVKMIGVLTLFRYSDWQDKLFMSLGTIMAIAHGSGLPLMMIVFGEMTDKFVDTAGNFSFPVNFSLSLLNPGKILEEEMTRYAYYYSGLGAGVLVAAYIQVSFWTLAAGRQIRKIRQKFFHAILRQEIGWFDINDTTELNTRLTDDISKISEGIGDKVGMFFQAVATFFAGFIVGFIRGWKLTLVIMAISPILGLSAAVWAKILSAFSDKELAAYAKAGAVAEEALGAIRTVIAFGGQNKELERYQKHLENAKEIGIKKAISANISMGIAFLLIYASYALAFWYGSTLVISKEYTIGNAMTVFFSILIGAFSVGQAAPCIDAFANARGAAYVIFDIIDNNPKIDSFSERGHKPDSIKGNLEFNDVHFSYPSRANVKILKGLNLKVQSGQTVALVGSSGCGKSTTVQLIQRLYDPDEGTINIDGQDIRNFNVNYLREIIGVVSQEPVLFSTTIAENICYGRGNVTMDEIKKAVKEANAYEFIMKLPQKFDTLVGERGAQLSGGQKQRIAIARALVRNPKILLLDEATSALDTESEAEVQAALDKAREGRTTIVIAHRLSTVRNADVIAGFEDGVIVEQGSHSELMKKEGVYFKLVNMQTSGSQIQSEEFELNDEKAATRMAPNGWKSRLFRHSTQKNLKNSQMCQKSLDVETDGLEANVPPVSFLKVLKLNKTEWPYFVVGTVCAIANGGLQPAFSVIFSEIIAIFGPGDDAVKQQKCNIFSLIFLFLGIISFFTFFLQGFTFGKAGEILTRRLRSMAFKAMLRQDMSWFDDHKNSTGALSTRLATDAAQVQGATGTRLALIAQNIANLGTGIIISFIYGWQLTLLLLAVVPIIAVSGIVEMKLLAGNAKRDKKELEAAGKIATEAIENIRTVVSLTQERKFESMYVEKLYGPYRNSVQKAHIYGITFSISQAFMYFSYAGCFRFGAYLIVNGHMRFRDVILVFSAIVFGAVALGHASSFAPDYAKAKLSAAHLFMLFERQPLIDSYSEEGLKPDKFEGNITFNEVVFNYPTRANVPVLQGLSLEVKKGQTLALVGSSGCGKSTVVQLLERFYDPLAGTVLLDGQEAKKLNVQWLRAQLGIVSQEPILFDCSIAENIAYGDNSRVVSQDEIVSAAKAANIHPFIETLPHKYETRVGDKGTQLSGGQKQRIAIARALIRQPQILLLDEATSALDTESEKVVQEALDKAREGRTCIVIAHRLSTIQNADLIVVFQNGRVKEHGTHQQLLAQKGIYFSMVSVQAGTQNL

SMILES	Slope (human ABCB4 [1]; [5])	Concentration at which maximal stimulation (plateau) of ATPase activity is reached (human ABCB4 [1]; basal ATPase activity)	EC50 (human ABCB4 [1])	Emax (human ABCB4 [1])	activity at 1000 µM (human ABCB4 [2])	Critical micelle concentration (cmc) [3]	Reduction of ATPase activity at 100 μM (human ABCB4 [1]; 100 μM)	inhibition at 1000 µM (human ABCB4 [1]; 1,000 μM, 5% DMSO, mixture experiment Fig. 6, read-out: Inhibition of basal ATPase activity by pure bile acid at 1,000 μM)	Concentration at which maximal inhibition is reached (human ABCB4 [1]; basal ATPase activity)	IC50 (human ABCB4 [1]; inhibition of basal ATPase activity, Equation 2)	Slope (human ABCB4 [1]; slope of inhibition fit (Equation 2))	Decrease of DOPC-stimulated ATPase activity (human ABCB4 [2]; 1,000 μM + 300 μM DOPC, relative to DOPC alone)	Concentration above which the bile acid precipitated [4]
C[C@H](CCC(=O)NCC(=O)O)[C@H]1CC[C@H]2[C@@H]3[C@H](O)C[C@@H]4C[C@H](O)CC[C@]4(C)[C@H]3C[C@H](O)[C@]12C [GCA]	2.9 ± 0.4	approximately 400 μM	177 ± 9.9 µM	733 ± 24%	171 ± 6.9%	4.1 mM and 4.1 ± 0.1 mM							
C[C@H](CCC(=O)NCCS(=O)(=O)O)[C@H]1CC[C@H]2[C@@H]3CC[C@@H]4C[C@H](O)CC[C@]4(C)[C@H]3C[C@H](O)[C@]12C [TDCA]	2.7 ± 0.3		102 ± 4.2 µM	217 ± 4%	84.8 ± 9.3%	1.7 mM and 1.7 ± 0.1 mM							
C[C@H](CCC(=O)O)[C@H]1CC[C@H]2[C@@H]3CC[C@@H]4C[C@H](O)CC[C@]4(C)[C@H]3C[C@H](O)[C@]12C [DCA, deoxycholic acid]	2.6 ± 0.6	300 µM	75 ± 7.3 µM	214 ± 13.3%	100 ± 7.5%	1.4 mM and 1.4 ± 0.1 mM							
C[C@H](CCC(=O)NCC(=O)O)[C@H]1CC[C@H]2[C@@H]3CC[C@@H]4C[C@H](O)CC[C@]4(C)[C@H]3C[C@H](O)[C@]12C [GDCA]	5.9 ± 1.2		47.9 ± 1.5 µM	259 ± 5%	156 ± 8.9%	2.0 mM and 2.0 ± 0.1 mM							
C[C@H](CCC(=O)NCCS(=O)(=O)O)[C@H]1CC[C@H]2[C@@H]3[C@H](O)C[C@@H]4C[C@H](O)CC[C@]4(C)[C@H]3CC[C@]12C [TCDCA, taurochenodeoxycholic acid]	2.6 ± 0.4	approximately 500 μM	169 ± 11 µM	423 ± 15%	112 ± 8.2%	1.7 mM and 1.7 ± 0.1 mM							
C[C@H](CCC(=O)NCCS(=O)(=O)O)[C@H]1CC[C@H]2[C@@H]3[C@@H](O)C[C@@H]4C[C@H](O)CC[C@]4(C)[C@H]3CC[C@]12C [TUDCA]	4.5 ± 1.4		267 µM	154 ± 11%	88.2 ± 8.3%	1.5 mM and 1.5 ± 0.2 mM							
C[C@H](CCC(=O)O)[C@H]1CC[C@H]2[C@@H]3[C@H](O)C[C@@H]4C[C@H](O)CC[C@]4(C)[C@H]3CC[C@]12C [CDCA, chenodeoxycholic acid]	1.8 ± 0.4		308 ± 56.8 µM	137 ± 16.8%	89.7 ± 1.4%	1.5 mM and 1.5 ± 0.1 mM							
C[C@H](CCC(=O)NCCS(=O)(=O)O)[C@H]1CC[C@H]2[C@@H]3CC[C@@H]4C[C@H](O)CC[C@]4(C)[C@H]3CC[C@]12C [TLCA, taurolithocholic acid]					34.8 ± 21.9%	0.14 mM and 0.14 ± 0.03 mM	36%	~50%	400 µM	113 µM	−2.7 ± 2.1	approximately 65%	
C[C@H](CCC(=O)NCC(=O)O)[C@H]1CC[C@H]2[C@@H]3CC[C@@H]4C[C@H](O)CC[C@]4(C)[C@H]3CC[C@]12C [Glycolithocholic acid]						Precipitate ^a							higher than 100 μM
C[C@H](CCC(=O)O)[C@H]1CC[C@H]2[C@@H]3[C@@H](O)C[C@@H]4C[C@H](O)CC[C@]4(C)[C@H]3CC[C@]12C [UDCA, Ursodeoxycholic acid]	4.6 ± 1.3		470 ± 34.5 µM	110 ± 10.7%	115 ± 22.1%	1.3 mM and 1.3 ± 0.1 mM							
C[C@H](CCC(=O)O)[C@H]1CC[C@H]2[C@@H]3[C@H](O)C[C@@H]4C[C@H](O)CC[C@]4(C)[C@H]3C[C@H](O)[C@]12C [CA, cholic acid]	2.8 ± 0.3		390 ± 22.7 µM	310 ± 16.4%	117 ± 8.9%	2.3 mM and 2.3 ± 0.2 mM							

Source: article PMC8233136, “Monomeric bile acids modulate the ATPase activity of detergent-solubilized ABCB4/MDR3” (Journal of Lipid Research, 2021)
